According to US8541464B2, “Treatment of atrial fibrillation” (HUYA Biosciences International LLC, priority 2009, dated 2013):
Where “and” joins values, the source holds several entries; their conditions need not be identical. Equal entries are not always repeated.

Experiments:
[1] = system: conscious beagle dogs; experiment: Hemodynamics and plasma histamine in conscious beagle dogs, 10 minute infusions of increasing doses; format: in vivo, beagle dog; settings: for Heart rate / Histamine Concentration / Mean blood pressure: 10 minute infusion
Experimental: The effect of sulcardine sulfate intravenously administered over a 10 minute infusion on the mean blood pressure, heart rate, and plasma histamine concentration of conscious beagle dogs was performed. Three male and female purpose-bred beagles, weighing 10.0-12.7 Kg were intravenously administered repeated increasing doses of sulcardine sulfate (cumulative dose 1-44 mg/kg) at 15 minute intervals following a 10 minute infusion of the prior dose. The administered doses were as follows: 1 mg/kg, 3 mg/kg, 10 mg/kg, and 30 mg/kg sulcardine sulfate. Heart rate, mean arterial blood pressure, and histamine concentrations were measured (Table 3) at 10 minute intervals after completion of each drug infusion period.

[2] = system: anesthetized dogs; experiment: Cardiovascular safety in anesthetized dogs, escalating 15-minute IV infusions (hemodynamics, histamine, ECG); format: in vivo, dog
Experimental: (§1) Dogs were administered morphine (2 mg/kg subcutaneously) approximately 10-19 minutes prior to administration of anesthesia. Dogs were anesthetized with 1% α-chloralose (100 mg/kg intravenous), followed by a constant infusion of α-chloralose (35-75 mg/kg/hr, IV). Two healthy female dogs were administered escalating doses of sulcardine sulfate intravenously over 15 minutes in an acetate buffer system at dose levels of 10, 30 and 90-mg/kg with dose administrations separated by 60 minutes. Following drug administration, dogs were evaluated for ventricular, pulmonary and peripheral hemodynamic changes using Swanz Ganz and femoral catheters as well as by monitoring of blood oxygen saturation, test article blood level, body temperature, blood biochemistries, hematologies, ECG, and histamine.
as §1, with “90 mg/kg” for “90-mg/kg”, “minutes. Another set of two dogs received test article after pre-treatment with diphenhydramine (1 mg/kg administered 30 minutes prior to start of test article infusion).” for “minutes.”, “biochemistry, hematology,” for “biochemistries, hematologies,”, “histamine levels.” for “histamine.”

[3] = Plasma PK in Beagle dog after oral and IV administration; format: in vivo; set-up: Tmax: unit not given here
Experimental: In dogs an PO dose of 40 mg/kg (efficacious oral dose range) gives peak levels of 2.1 μg/mL (4.6 μM). […] These PK data and extrapolated conclusion are in agreement with the CV safety study, where PK after 15 minute infusion was conducted. In general, the mean concentrations peaked at the 10-minute time point, post-initiation, for each 15-minute infusion of sulcardine sulfate at 10 and 30 mg/kg (efficacious dose against ventricular arrhythmia). The mean peak plasma concentrations were 1.8 (4.2 μM) and 11.2 μg/mL (24.6 μM), respectively (data not shown). These values were well below in the case of the lower dose to barely reaching some but not all atrial cell patch clamp IC50s on various ion channels, although still associated with significant drops in mean arterial pressure, tachycardia, QT interval prolongation and changes in ventricular contractility were observed.

[4] = system: minipigs; experiment: Cardiovascular safety in anesthetized minipigs, escalating 15-minute IV infusions; format: in vivo, minipig
Experimental: Animals were administered morphine (2 mg/kg subcutaneously) prior to induction of anesthesia. […] Animals were placed on a heating pad set to maintain the animal's body temperature at approximately 37° C. Body temperature was monitored throughout the experiment via a rectal thermometer or via the Swan Ganz (thermodilution catheter) once implanted. Animals were intubated and placed on a ventilator supplemented with oxygen to maintain oxygenation within the normal physiological range. The animals were mechanically ventilated at a rate of 11-13 breaths/minute and a peak inspiratory pressure of 18 cm H2O. The following parameters were regularly monitored in order to ensure proper ventilation of the animals but are not reported: SpO2, inspiratory and expiratory CO2, inspiratory O2 and respiratory rate.
A Swan Ganz (thermodilution catheter) was inserted into the right femoral vein via phlebotomy and advanced into the pulmonary artery for cardiac output measurements. A catheter was inserted in the left femoral artery via an arteriotomy for blood gas determination. Another catheter was inserted in the left femoral vein for blood collection for toxicokinetic evaluation. Finally, an incision was also performed on the left side of the neck to expose the left carotid artery and an electronic dual pressure sensor catheter (Millar) was placed via arteriotomy and advanced into the left ventricle. The catheter was positioned to simultaneously collect left ventricle blood pressure measurements as well as aortic pressure. In addition, a temporary catheter was placed in any of the cephalic veins for administration of Lactated Ringers at 10 mL/kg/hr throughout the course of the experiment.
Following surgical preparation, hemodynamic and electrocardiographic parameters were allowed to stabilize for at least 15 minutes. The vehicle control and test article were then administered, and hemodynamic, electrocardiographic, histamine and PK parameters were monitored.

sulcardine sulfate
Heart rate ([1]; 1 mg/kg): 90.00 ± 12.58 bpm
Histamine Concentration ([1]; 1 mg/kg): 93.95 ± 24.11 ng/mL
Mean blood pressure ([1]; 1 mg/kg): 166.7 ± 10.99 mmHg
Heart rate ([1]; 3 mg/kg): 110.00 ± 10.41 bpm
Histamine Concentration ([1]; 3 mg/kg): 182.5 ± 46.11 ng/mL
Mean blood pressure ([1]; 3 mg/kg): 170.7 ± 7.36 mmHg
Heart rate ([1]; 10 mg/kg): 111.7 ± 17.64 bpm
Histamine Concentration ([1]; 10 mg/kg): 252.6 ± 85.78 ng/mL
Mean blood pressure ([1]; 10 mg/kg): 101.0 ± 28.45 mmHg
Heart rate ([1]; 30 mg/kg): 111.7 + 6.01 bpm
Histamine Concentration ([1]; 30 mg/kg): 465.9 ± 27.75 ng/mL
Mean blood pressure ([1]; 30 mg/kg): 69.7 ± 14.7 mmHg
observations during intravenous administration over 10 minutes ([1]; with erythemitous flare of face and ears and urticaria (hives)): dose-dependent decrease in arterial blood pressure
mean arterial pressure initial increase ([2]; 10 mg/kg, one animal out of two, maximum at 10 minutes post start of dosing): +66%
QTc prolongation ([2]; 10 mg/kg, within 5 minutes of initiation): ≤ 20 ms
maximum histamine plasma concentration ([2]; 10 mg/kg, at 5 min and 10 min post-Rx respectively): 1874 nM and 1919 nM
maximum histamine plasma concentration ([2]; 30 mg/kg): 251 nM and 183 nM
QTc prolongation ([2]; 30 mg/kg infusion, cumulative): approximately 35 msec
maximum histamine plasma concentration ([2]; 90 mg/kg): 99 nM and 64 nM
mortality ([2]; 90 mg/kg, final 15-minute infusion): all animals succumbed
QRS widening ([2]; all dose levels (10, 30, 90 mg/kg)): QRS widening was also noted at all dose levels
K10 ([3]; 40 mg/kg po): 0.1748 ± 0.0306 h⁻¹
Tmax ([3]; 40 mg/kg po): 1.508 ± 0.4160
peak levels ([3]; dogs, PO 40 mg/kg, 40 mg/kg): 2.1 μg/mL and 4.6 μM
QTcC prolongation ([4]; 10 mg/kg, Animal 1601C): 15%
PR interval increase ([4]; 10 mg/kg, per animal): +38% and +10%
mortality ([4]; 90 mg/kg, during or at completion of the 15-minute infusion): both animals succumbed
QTcC prolongation ([4]; 30 and 90 mg/kg, both animals): up to 30%
histamine levels ([4]; all doses): no appreciable increases
QRS durations ([4]; starting at 10 mg/kg, both animals): dose dependent pattern of increasing QRS durations
